Read-outs that look alike come from different tables or passages of the source.
Columns and labels:
T6/GFAP-lacZ cells [1] = test: tetrazolium-based proliferation assay of T6/GFAP-lacZ cells; type: cell-based, rat; settings: 48 hours, low serum (0.5% FBS) medium, read-out: IC50 of proliferation inhibition
Description: FIG. 14 illustrates that EGCG and genistein suppressed proliferation of the T6/GFAP-lacZ cells. Cells were grown in full medium to 70-80% confluence in 96-well plates, followed by compound treatment of various concentrations (0-40 μM) in a low serum medium for 48 hours before assaying for proliferation. Signal was normalized against vehicle treatment (0 μM compound). Data was obtained from three independent experiments and presented as mean ±SE.
However our genistein IC50 value for the T6/GFAP-lacZ cells was three times lower than that for the T6 cells cultured in DMEM containing 10% FBS (Kang et al., (2001) supra). Our additional data also confirmed that no significant difference in IC50 value was observed between the T6 and the T6/GFAP-lacZ cells (data not shown).

T6/GFAP-lacZ cells [2] = test: X-gal stained images of T6/GFAP-lacZ cells (cell number); type: cell-based, rat; settings: 24 hours, low serum (0.5% FBS) DMEM
Description: FIG. 15 depicts X-gal staining of T6/GFAP-lacZ cells. Incubation with A) DMSO vehicle control; B) 25 μM EGCG; and C) 40 μM genistein in a low serum DMEM for 24 hours. Images were captured after 60 min of X-gal staining;
(§1) A lacZ reporter assay kit for cell staining (InvivoGen, CA, USA) was used to detect the reporter gene activity in T6/GFAP-lacZ cells treated with EGCG or genistein. The staining results were documented with a digital camera (DP12) attached to an Olympus inverted bright field microscope (IX51) after development for 60 min. For quantification, the β-galactosidase activity in cell extracts was measured using a chemiluminescent assay kit (Roche, Mannheim, Germany) in a 96-well plate format, according to the manufacturer's instructions. Briefly, cells were washed twice with ice-cold 1×PBS (pH 7.4), lysed for 30 minutes at room temperature with the lysis buffer, and supernatant was collected for assays. Protein concentration was determined with a BCA protein assay kit (Pierce, Ill., USA). Specific β-galactosidase activity was obtained by normalizing against total cellular protein content.
EGCG is a major catechin from green tea leaves associated with a wide range of beneficial activities including anti-oxidation, anti-inflammation and anti-fibrosis, whereas genistein is a major flavonoid found abundantly in soy bean with anti-tumor and pro-apoptotic activities. […]

GFAP-lacZ transgene = test: chemiluminescent β-galactosidase activity assay of GFAP-lacZ transgene expression in T6/GFAP-lacZ cells; type: cell-based, rat
Description: (§2) Cells were initially seeded in 12-well plates in DMEM supplemented with 10% FBS and weaned to a low serum DMEM (0.5% FBS) at a confluence of 70-80% for 12 hours of adaptation. Cells were then incubated with different concentrations of compounds for various amounts of time before being assayed for β-galactosidase activity and GFAP mRNA. For compound attenuation studies, cells were treated with a pro-fibrotic cytokine (TGF-β1 or PDGF-BB) either sequentially or concurrently with a compound (EGCG or genistein). In the sequential scheme, cells were first treated with a cytokine for 1-3 days, then the cytokine-containing culture medium was replaced with a fresh medium containing a particular compound only for various times. Details of the cytokine/compound treatments can be found in the individual figure legends.
as §1

endogenous rat GFAP mRNA = test: real-time RT-PCR for endogenous rat GFAP mRNA in T6/GFAP-lacZ cells; type: cell-based
Description: as §2
Total RNA was reverse-transcribed to cDNA using Taqman's reverse transcription reagent (Applied Biosystems, CA, USA). A total of 200 ng of RNA in 7.7 μl of nuclease-free water was added to 2 μl 10× reverse transcriptase buffer, 4.4 μl 25 mM magnesium chloride, 4 μl deoxyNTP mixtures, 1 μl random hexamers, 0.4 μl RNase inhibitor and 0.5 μl reverse transcriptase (50 U/μl) in a final reaction volume of 20 μl. The reaction was performed for 10 min at 25° C. (annealing), 30 min at 48° C. (cDNA synthesis) and 5 min at 95° C. (enzyme denaturation).
Real-time quantitative PCR was carried out with an ABI 7500 Fast Real-time PCR System (Applied Biosystems, CA, USA). Two micro liters of sample cDNA were used in each PCR reaction, with β-actin gene as a reference for normalization. The primers and probes for rat β-actin and GFAP were ordered from Taqman's assay-on-demand database. The PCR reaction was performed under a default profile consisting of 95° C. for 20 seconds (enzyme denaturation) and 40 cycles of amplification (denaturation 3 seconds, annealing and extension 30 seconds). Some of the real-time RT-PCR reactions were separated on an agarose gel for visual confirmation of discrete products (data not shown).
Relative quantitation of the target mRNA was calculated using the comparative threshold cycle (CT) methods as described in the User Bulletin #2 (ABI Prism 7700 Sequence Detection System). CT indicates the fractional cycle number at which the amount of amplified target reaches a fixed threshold within the linear phase of gene amplification. ΔCT, which reflects the difference between CT target and CT β-actin, is inversely correlated to the abundance of mRNA transcripts in the samples. ACT for each sample was normalized against control experiment or calibrator and expressed as ΔΔCT. Relative quantitation is given by 2^−ΔΔCT to express the up-regulation or down-regulation of the target gene under the treatments compared to the control.

[3] = Yang et al. (1998); cited from earlier work

O=c1c(-c2ccc(O)cc2)coc2cc(O)cc(O)c12 [genistein]
IC50 (T6/GFAP-lacZ cells [1]; Rattus norvegicus): 25 µM | proliferation inhibition (fewer cells than control) (T6/GFAP-lacZ cells [2]; 40 μM genistein): significant proliferation inhibition | GFAP-lacZ transgene expression (β-galactosidase activity), % of the control (GFAP-lacZ transgene; 40 μM genistein, 24 hours (largest suppression)): 65% | PDGF-BB-induced GFAP-lacZ, % of PDGF-BB-alone control (GFAP-lacZ transgene; concurrent: 40 μM genistein and 10 ng/ml PDGF-BB, 72 hours): 48% | β-galactosidase activity, % of the TGF-β1-alone control (GFAP-lacZ transgene; concurrent: 40 μM genistein and 10 ng/ml TGF-β1, 48 hours): 43% | PDGF-BB-induced GFAP-lacZ, % of PDGF-BB-alone control (GFAP-lacZ transgene; sequential: 10 ng/ml PDGF-BB 48 hours, then 40 μM genistein 24 hours): 79% | suppressing effect on TGF-β1-induced β-galactosidase activity (GFAP-lacZ transgene; sequential: 10 ng/ml TGF-β1 24 hours, then 40 μM genistein 24 hours): negligible | effect on endogenous GFAP mRNA (endogenous rat GFAP mRNA; 10 μM genistein, time course 0-72 hours): less predictable, ranging from suppression at 24 hours to induction at 72 hours | endogenous GFAP mRNA, % of the control (endogenous rat GFAP mRNA; 20 μM genistein, 8 hours): 23% | endogenous GFAP mRNA, % of the control (endogenous rat GFAP mRNA; 20 μM genistein, 72 hours): 43% | TGF-β1-induced GFAP transcription, % of the control (endogenous rat GFAP mRNA; concurrent: 20 μM genistein and 1 ng/ml TGF-β1, 56 hours): 14% | endogenous GFAP transcription, % of the PDGF-BB-alone control (endogenous rat GFAP mRNA; concurrent: 20 μM genistein and 10 ng/ml PDGF, 48 hours): 6% | reliable inhibitory concentration for GFAP mRNA (endogenous rat GFAP mRNA; genistein dose experiment, 48 hours): higher than 10 μM | TGF-β1-induced GFAP transcription, % of the control (endogenous rat GFAP mRNA; sequential: 1 ng/ml TGF-β1 48 hours, then 20 μM genistein 8 hours): 26% | endogenous GFAP transcription, % of the PDGF-BB-alone control (endogenous rat GFAP mRNA; sequential: 10 ng/ml PDGF 24 hours, then 20 μM genistein 24 hours): 8.6%

O=C(O[C@@H]1Cc2c(O)cc(O)cc2O[C@@H]1c1cc(O)c(O)c(O)c1)c1cc(O)c(O)c(O)c1 [EGCG, epigallocatechin gallate]
IC50 (T6/GFAP-lacZ cells [1]): 31 µM | proliferation inhibition (fewer cells than control) (T6/GFAP-lacZ cells [2]; 25 μM EGCG): significant proliferation inhibition | PDGF-induced GFAP-lacZ elevation, % of the transgenic control (GFAP-lacZ transgene; 10 ng/ml PDGF-BB, incubation with 10 μM of EGCG for two days): 60% | GFAP-lacZ transgene expression (β-galactosidase activity), % of the control (GFAP-lacZ transgene; 5 μM EGCG, 2 hours): 82% | GFAP-lacZ transgene expression (β-galactosidase activity), % of the control (GFAP-lacZ transgene; 20 μM EGCG, 2 hours): 55% | GFAP-lacZ transgene expression (β-galactosidase activity), % of the control level (GFAP-lacZ transgene; 20 μM EGCG, 4 hours): 73% | inhibitory effect on GFAP-lacZ transgene expression (GFAP-lacZ transgene; EGCG all dosages (up to 20 μM), 24 hours): completely abolished | β-galactosidase activity, % of TGF-β1-alone control (GFAP-lacZ transgene; concurrent: 10 ng/ml TGF-β1 with 20 μM EGCG 26 hours): 66% | β-galactosidase activity, % of TGF-β1-alone control (GFAP-lacZ transgene; sequential: 10 ng/ml TGF-β1 24 hours, then 20 μM EGCG 2 hours, not statistically significant): 87% | PDGF-induced GFAP elevation, % of the endogenous control (endogenous rat GFAP mRNA; 10 ng/ml PDGF, incubation with 10 μM of EGCG for two days): 8% | GFAP transcription, % of the control level (endogenous rat GFAP mRNA; 130 nM EGCG, 48 hours): 34% | endogenous GFAP mRNA, % of the control (endogenous rat GFAP mRNA; 10 μM EGCG, 24 hours (maximum suppression)): 39% | GFAP transcription at increasing dosages (endogenous rat GFAP mRNA; EGCG dosages above 130 nM up to 20 μM, 48 hours): no further suppression | endogenous GFAP mRNA, % of TGF-β1-alone control (endogenous rat GFAP mRNA; concurrent: 1 ng/ml TGF-β1 with 5 μM EGCG, 56 hours): 29% | endogenous GFAP mRNA, % of TGF-β1-alone control (endogenous rat GFAP mRNA; sequential: 1 ng/ml TGF-β1 48 hours, then 5 μM EGCG 8 hours): 45% | half-life in human plasma [3]: about 5 hours

Source: patent US20070299029A1, “Hepatic stellate cell specific promoter and uses thereof” (Agency for Science, Technology and Research, priority 2005, published 2007)
